In ChEMBL document CHEMBL1177888, “Mn(II), Co(II) and Zn(II) complexes with heterocyclic substituted thiosemicarbazones: synthesis, characterization, X-ray crystal structures and antitumor comparison” (Eur J Med Chem, 2010):

System: K562
Experiment: Cytotoxicity against human K562 cells after 48 hrs by MTT assay
Type: functional, cell-based
Settings: K562, 48 h

| Structure (SMILES) | IC50 [µM] |
| --- | --- |
| S=C(N/N=C(\c1ccccc1)c1ccccn1)Nc1ccccc1 | 1.43 |
| C/C(=N\NC(N)=S)c1ccccn1 | 29.7 |
| CNC(=S)N/N=C(\C)c1ccccn1 | 4.58 |
